Reference: article PMC6736837, “^18F-labelled triazolyl-linked argininamides targeting the neuropeptide Y Y1R for PET imaging of mammary carcinoma” (Scientific Reports, 2019)
Entries after “also recorded” stand apart in the source; their conditions may differ.

How the values were obtained:
MCF-7-Y1 tumour slices = assay: In-vitro autoradiography on MCF-7-Y1 tumour xenograft slices; assay type: binding, human; conditions: blocking with 1 µM and 10 µM BIBP3226
Protocol: MCF-7-Y1 tumour bearing mice were sacrificed by cervical dislocation under deep isoflurane anesthesia and tumours were excised and subsequently frozen in a hexane/dry ice bath (−70 °C). MCF-7-Y1 tumour slices (14 µm) were prepared on a cryostat microtome HM 500 O (Microm, Walldorf) and thaw-mounted on Histobond® adhesive glass slides (Marienfeld, Lauda-Königshofen).
For autoradiography studies slides were thawed and pre-incubated for 15 min in incubation buffer (50 mM TRIS HCl, pH 7.4, containing 120 mM NaCl, 5 mM MgCl2,) at room temperature. Thereafter, 800 µL of incubation buffer, containing 0.1 MBq of the respective radiotracer were pipetted on the slide and incubated at room temperature for 60 min. For displacement studies BIBP3226 (1 µM or 10 µM) was added to the incubation buffer before pipetting on the slides. Afterwards slides were washed by placing in ice cold incubation buffer (3 × 2 min) followed by short dipping in ice cold distilled water. Slides were carefully dried in a stream of warm air and finally placed on an autoradiography film (Fuji Imaging Plate BAS-IP SR 2025 E, Fujifilm, Düsseldorf) overnight prior to readout (25 µm resolution) on the autoradiograph (HD-CR-35 Bio, Raytest, Straubenhardt) and analysis with the software AIDA (Raytest). Additional sections were stained with hematoxylin and eosin (H&E) for comparison with the autoradiography images.

MCF-7-Y1 tumours = assay: Small animal PET in MCF-7-Y1 xenografted nude mice; assay type: in vivo, mouse; conditions: 45–60 min p.i., blocking by co-injection of BIBP3226 1 mg/kg
Protocol: For the NPY Y1R xenograft model, female NMRI nude mice (HsdCpb:NMRI-Foxn1^nu) were purchased from Envigo (Horst, The Netherlands) at the age of three weeks. Mice were kept in groups of four to five animals in individually ventilated cages in a twelve hours dark/light cycle with unlimited access to water and standard chow. At the age of nine to ten weeks one 17β-estradiol pellet per animal (0.72 mg per pellet, 3 mm diameter) with a 60-day release time (Innovative Research of America, Sarasota, FL, USA) was subcutaneously implanted on the back under isoflurane anesthesia. After three days, approximately 10^6 MCF-7-Y1 tumour cells (in 50 µL PBS) were mixed with Matrigel (50 µL, BD Biosciences, Heidelberg) and then injected subcutaneously at the back. Tumour diameters and weight of the animals were recorded five times a week. Imaging studies were performed four weeks after inoculation of the cells.
Small animal PET scans were performed on an Inveon™ microPET scanner (Siemens Healthcare, Erlangen) under isoflurane anesthesia (3%). Tumour bearing mice (26–35 g, n = 2–3 for each radioligand) were intravenously injected into the tail vein with the respective radiotracer (1.5–4.2 MBq in about 100 µL of saline) under isoflurane anesthesia (3–4%). Static images were acquired for 15 min starting 45 min p.i. of the radiotracer. For displacement studies, the same mice were co-injected with the radiotracer ([^18F]12 and [^18F]13 only) and BIBP3226 (1 mg/kg). Images were corrected for decay and attenuation and MAP (iterative maximum a posteriori) images were reconstructed using the built-in software of the PET scanner. Evaluation of the MAP images was conducted using the software PMOD (version 3.6, PMOD Technologies LLC, Zürich). Regions of interests (ROIs) were drawn and radioactivity concentration within these regions was obtained from the mean values and calculated as percentage of the total injected dose per gram tissue (% ID/g).

SMILES	specific binding to MCF-7-Y1 tumour slices (autoradiography) (MCF-7-Y1 tumour slices)	tumour visualisation / specific tumour accumulation in PET (MCF-7-Y1 tumours)
N/C(=N/C(=O)NCc1cn([C@@H]2OC(C[18F])[C@@H](O)C(O)C2O)nn1)NCCC[C@@H](NC(=O)C(c1ccccc1)c1ccccc1)C(=O)NCc1ccc(O)cc1 (stereo partly drawn) [[^18F]11, (2R)‐5‐{[(1Z)‐Amino({[({1‐[(2R,5S)‐6‐([^18F]fluoromethyl)‐3,4,5‐trihydroxyoxan‐2‐yl]‐1H‐1,2,3‐triazol‐4‐yl}methyl)carbamoyl]imino})methyl]amino}‐2‐(2,2‐diphenylacetamido)‐N‐[(4‐hydroxyphenyl)-methyl]pentanamide]	very low specific binding	visualision of the tumour with the fluoroglycosylated radiotracer [^18F]11 failed
N/C(=N/C(=O)NCc1cn(CCOCCOCCOCC[18F])nn1)NCCC[C@@H](NC(=O)C(c1ccccc1)c1ccccc1)C(=O)NCc1ccc(O)cc1 [[^18F]13, (2R)‐5‐{[(1Z)‐Amino[({[1‐(2‐{2‐[2‐(2‐[^18F]fluoroethoxy)ethoxy]ethoxy}ethyl)‐1H‐1,2,3‐triazol‐4‐yl]methyl}carbamoyl)imino]methyl]amino}‐2‐(2,2‐diphenylacetamido)‐N‐[(4‐hydroxyphenyl)-methyl]pentanamide]	marked specific binding	displaceable and thus specific Y1R-mediated tumour acculuation in vivo; also recorded: enhanced and specific tumour uptake
